Assay results taken from PMC10350923, “In Vitro and In Vivo Biological Activities of Dipicolinate Oxovanadium(IV) Complexes” (Journal of Medicinal Chemistry, 2023).
Several values for one entry are separate records, joined by “and”; a condition that tells them apart may be missing. Identical values can stand only once. Entries after “also recorded” stand apart in the source; their conditions may differ. Like-named read-outs stand apart in the source and are kept apart here.

Assays:
[1] = tested on: HCT116 (colorectal carcinoma cell line); test: MTS cell viability assay, HCT116; type: cell-based, human; details: mean ± SEM
[2] = tested on: A2780 (ovarian carcinoma cell line); test: MTS cell viability assay, A2780; type: cell-based, human; details: mean ± SEM
HCT116-DoxR spheroids = test: MTS assay in 3D spheroids; type: cell-based, human; details: HCT116-DoxR spheroids 6- to 8-day-old, 48 h
HCT116-DoxR cells [3] = test: Cell internalization by ICP-AES; type: cell-based, human; details: 3 h exposure to 10x IC50, ICP-AES
HCT116-DoxR cells [4] = test: Alexa Fluor 488-annexin V/PI apoptosis assay, flow cytometry; type: cell-based, human; details: 48 h; for increase of percentage of apoptotic cells normalized to DMSO: IC50; for early apoptosis / late apoptosis / necrosis / percentage of apoptosis (total) / viable cells: complexes at IC50, cisplatin 5 μM, Dox 6 μM
BAX = test: Western blot, BAX expression; type: cell-based, human; details: HCT116-DoxR, 48 h; for BAX/BCL-2 ratio normalized to DMSO control: IC50; for BAX protein expression vs DMSO control: IC50, normalized to β-actin
BCL-2 = test: Western blot, BCL-2 expression; type: cell-based, human; details: HCT116-DoxR, 48 h, IC50, normalized to β-actin
cleaved PARP1 = test: Western blot, cleaved PARP1 expression; type: cell-based, human; details: HCT116-DoxR, 48 h, IC50
caspase-8 = test: Caspase-8 activity, IETD-pNA cleavage; type: cell-based, human; details: HCT116-DoxR, 48 h; complexes at IC50, cisplatin 5 μM
Method: Since caspase-8 is an initiator caspase of the extrinsic apoptotic pathway, its activity was evaluated after HCT116-DoxR cells were exposed to complexes 5 and 8 (Figure 8).
The chromogenic substrate IETD-pNA, which results from the conjugation between the peptide IETD (Ile-Glu-Thr-Asp) and the chromophore p-nitroanilide (pNA), is cleaved by caspase-8 and releases pNA, which can be detected by measuring absorbance at 400 nm.[99] Therefore, if complexes 5 and 8 induce cell death through the extrinsic apoptotic pathway, there is an increase in absorbance at 400 nm compared to the control sample, corresponding to an increase in caspase-8 activity that is translated into the cleavage of the substrate IETD-pNA (Figure 8).
(§1) Antibody; Cell Signalling Technology, USA).
(§2) Assay Kit (Abnova Corporation, Walnut, CA, USA).
(§3) vanadium complexes at its IC50 concentrations.
(§4) Cells were then incubated
(§5) Flow Cytometer (Life Technologies, Carlsbad, USA).
(§6) HCT116-DoxR cell line was cultivated

HCT116-DoxR cells [5] = test: ROS production, H2DCF-DA, flow cytometry; type: cell-based, human; details: 48 h, IC50
Method: Thus, the level of ROS present in HCT116-DoxR cells after their exposure to vanadium complexes was quantified (Figure 10). The probe 2′,7′-dichlorohydrofluorescein diacetate (H2DCF-DA), which diffuses into cells and is deacetylated by cellular esterases resulting in a nonfluorescent compound, was used. Inside the cell, this molecule is oxidized by ROS and then originates the fluorescent molecule 2′,7′-dichlorofluorescein (DCF) that can be detected by flow cytometry.[103]
(§7) finishing the 48 h period.
(§8) Attune® Cytometric software.
(§9) Butyl hydroperoxide) were used as controls.
(§10) Cells were later analysed
(§11) (double thymidine block).
(§12) After this, the pellet was resuspended in
Control solutions were also prepared, namely a […]

[6] = molecular target: T1, BSA (bovine serum albumin) (Bos taurus, UniProt P02769); test: BSA binding, UV-vis and fluorescence spectroscopy; details: for BSA fluorescence with increasing complex concentrations: BSA 20 μM, complexes 10-100 μM, pH 7.0, 24 h, 37 °C; for interaction with BSA protein: UV-vis and fluorescence spectroscopy
T1 construct: I (1–195), II (196–383), and III (384–583)

fibroblasts = test: Cell migration (wound healing) assay; type: cell-based, human; details: 24 h, IC50
Method: In the wound healing assay, a region without cells is generated, being then exposed to the compounds, and the cell migration is analyzed after 24 h, to determine the cells’ ability to proliferate and refill the gap previously formed (Figure 14).[116]
as §7, §8, §9, §10, §11, §12
Control solutions were also prepared, namely a
DMSO only. […] The UV-Vis spectra were […]

[7] = tested on: chick chorioallantoic membrane; test: Ex ovo chick chorioallantoic membrane (CAM) assay, angiogenesis; type: in vivo, chicken; details: chick embryo CAM; for anti-/pro-angiogenic potential, newly formed blood vessels, 48 h: IC50, 48 h
Text: The ex ovo CAM assay was used to evaluate the role of vanadium complexes in the process of angiogenesis. CAM is a chicken extraembryonic membrane and is often used to study the process of angiogenesis in vivo as it has a high density of blood and lymphatic vessels.[120] This assay consists of analyzing certain vascularized areas of the chorioallantoic membrane of a chicken embryo. Initially, o-rings are placed covering those membrane vascularized areas being then exposed to the complexes. Pictures are then taken at 0, 24, and 48 h after exposure to the complexes and the number of blood vessels present at each hour are counted and compared. The results can be observed in Figure 15.
Ex-ovo Chick Chorioallantoic Membrane (CAM) assay
The ex-ovo chorioallantoic membrane (CAM) assay was performed in order to evaluate the angiogenic potential of vanadium complexes, as already described in literature11–13. Firstly, chicken embryos were […]
concentration of each complex dissolved in PBS 1x was placed in the centre of O-rings. Beside each complex, DMSO 0.1% (v/v) was used as a control and complex distribution in chicken embryos was always performed in a different order. The embryos were incubated for 48 h at 37 °C and images were […]
Newly formed blood vessels were later manually counted, via ImageJ software.
The ex-ovo CAM assay fulfils the Directive 2010/63/ EU of the European Parliament for protection of animal models for scientific purposes.
All data are presented as Mean ± SEM from at least two independent experiments unless otherwise specified. One-way ANOVA or Student’s t-test were used to determine statistical significance (p < 0.05) using the GraphPad Prism 8 software (GraphPad Software, San Diego, CA, USA).

[8] = Stability and solubility in RPMI culture medium, UV-vis; type: physicochemical; details: UV-vis at 0, 24, 48 h
[9] = tested on: HCT116-DoxR (doxorubicin-resistant colorectal carcinoma cell line); test: MTS cell viability assay, HCT116-DoxR;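 also: MTS colorimetric quantification of viable cells, with loss of viability tracked as complex concentration rises, in DMEM-grown HCT116-DoxR, a line whose resistance involves P-glycoprotein efflux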
Method: (§13) To assess the cytotoxicity of vanadium complexes in tumor and healthy cells, the MTS assay, a colorimetric method that allows the quantification of viable cells present in solution,[71] was performed.
Cell culture and maintenance
(§14) The A2780 cancer cell line (ovarian carcinoma) was purchased from Sigma-Aldrich (Madrid, Spain)
(§15) while HCT116 cancer cell line (colorectal carcinoma) and the normal human primary dermal
(§16) fibroblasts were obtained from American Type Culture Collection (ATCC®, Manassas, VA, USA).
(§17) HCT116 Dox-resistant cell line (HCT116-DoxR) was derived from HCT116 parental cells, as
(§18) All cells were cultured in Dulbecco’s modified Eagle medium (DMEM), except the A2780 cell line
(§19) which was cultured in RPMI (Roswell Park Memorial Institute) medium. Both media were
(§20) supplemented with 10% (v/v) fetal bovine serum (FBS) and 1% (v/v) of a Pen/Strep
(§21) (Penicillin/Streptomycin) solution. HCT116-DoxR cell medium was additionally supplemented with
(§22) All media and supplements were purchased from Thermo Fischer Scientific (Waltham, Massachusetts, USA).
(§23) (SANYO CO2 Incubator, Electric Biomedical Co., Osaka, Japan).
(§24) HCT116, HCT116-DoxR and A2780 cancer cell lines and normal human primary fibroblasts were
(§25) used in cellular viability assays. Cells were seeded in a density of 0.75×10^5 cells/mL into 96 well-
(§26) After the 24 h of incubation, complexes were
(§27) weight and immediately solubilized in 100% (v/v) DMSO and then, diluted for the final concentration
(§28) with cell culture medium. The medium in each 96 well-plates will be replaced by fresh medium
(§29) containing each vanadium complex (concentrations ranging from 0.01 µM to 50 µM). Culture medium
(§30) with 0.1% (v/v) DMSO and 0.4 µM Dox were used as negative and positive controls, respectively.

[10] = tested on: normal human primary dermal fibroblasts; test: MTS cell viability assay, fibroblasts; details: read-out: IC50 fibroblasts; 48 h of exposure, MTS, mean ± SEM
Method: as §13
Cell culture and maintenance
as §14, §15, §16, §17, §18, §19, §20, §21, §22, §23, §24, §25, §26, §27, §28, §29, §30

HCT116-DoxR cells [11] = test: Cell cycle progression, PI, flow cytometry; details: HCT116-DoxR, 3, 9, 24, 32 h; complexes at IC50, cisplatin 5 μM, Dox 6 μM
HCT116-DoxR cells [12] = test: Autophagy induction, Green Detection Reagent, flow cytometry; details: 48 h, complexes at IC50, cisplatin 5 μM, Dox 6 μM
[13] = n-octanol/PBS buffer partition coefficient, shake-flask, UV-vis; details: room temperature
Method: The lipophilicity of V(IV) complexes was investigated using the classical shake-flash method at room temperature in the two-phase system of immiscible solvents n-octanol/PBS buffer.[69],[70] The transfer of V(IV) compounds from the aqueous environment to the organic phase was monitored by UV–vis spectroscopy.
The n-octanol/PBS buffer partition coefficients (logP) were determined by shake-flash approach, and
the transfer of V(IV) compounds from the aqueous environment to the organic phase was monitored
by UV-Vis spectroscopy5,6. Solutions of 1–10 of concentrations in the range 10-100 M were prepared
in PBS buffer saturated with n-octanol from the freshly-prepared stock solution in DMSO (5mM or 50
mM), and their UV-Vis spectra were recorded. The solution of 1–10 in aqueous buffer (3 ml) were
mixed with n-octanol saturated with pH 7.4 aqueous buffer (3 ml), and the obtained mixtures were
stirred in a mechanical shaker for 30 min. The mixtures were allowed to stand at room temperature for
24 h, and after this time, the aqueous phases were separated, and the concentrations of 1–10 were
determined by measuring their UV-Vis spectra. For each complex, the highest energy absorption band was taken into consideration to determine the sample concentration.

HCT116-DoxR cells [14] = test: Mitochondrial membrane potential, JC-1, flow cytometry; type: cell-based, human; details: 48 h, complexes at IC50, cisplatin 5 μM, Dox 6 μM
Text: The use of the fluorescent probe JC-1 (5,5,6,6′-tetrachloro-1,1′,3,3′ tetraethylbenzimidazolcarbocyanine iodide) allows the evaluation of ΔΨm, as the aggregation of the probe changes whether the mitochondrial membrane is hyperpolarized or depolarized.[95],[96] In healthy cells with high mitochondrial potential, JC-1 enters and accumulates inside mitochondria, where it forms complexes known as J-aggregates, emitting red fluorescence. However, in cells with a loss of ΔΨm, JC-1 is unable to remain in the mitochondria and exits to the cytoplasm, accumulating in its monomeric form and emitting green fluorescence. Thus, the ratio of the red/green fluorescence intensities can be used to indicate polarization (ratio > 1) or depolarization (ratio < 1) of the mitochondrial membrane (Figure 7).[94],[95]
as §1, §2, §3, §4, §5, §6

[15] = tested on: HCT116-DoxR (doxorubicin-resistant colorectal carcinoma cell line); details: doxorubicin in resistant line; cited from earlier work
[16] = read-out: IC50 2D, HCT116-DoxR 2D culture, 48 h
[17] = read-out: IC50 HCT116-DoxR, 48 h of exposure, MTS, mean ± SEM

T1 sequence (P02769 25-607): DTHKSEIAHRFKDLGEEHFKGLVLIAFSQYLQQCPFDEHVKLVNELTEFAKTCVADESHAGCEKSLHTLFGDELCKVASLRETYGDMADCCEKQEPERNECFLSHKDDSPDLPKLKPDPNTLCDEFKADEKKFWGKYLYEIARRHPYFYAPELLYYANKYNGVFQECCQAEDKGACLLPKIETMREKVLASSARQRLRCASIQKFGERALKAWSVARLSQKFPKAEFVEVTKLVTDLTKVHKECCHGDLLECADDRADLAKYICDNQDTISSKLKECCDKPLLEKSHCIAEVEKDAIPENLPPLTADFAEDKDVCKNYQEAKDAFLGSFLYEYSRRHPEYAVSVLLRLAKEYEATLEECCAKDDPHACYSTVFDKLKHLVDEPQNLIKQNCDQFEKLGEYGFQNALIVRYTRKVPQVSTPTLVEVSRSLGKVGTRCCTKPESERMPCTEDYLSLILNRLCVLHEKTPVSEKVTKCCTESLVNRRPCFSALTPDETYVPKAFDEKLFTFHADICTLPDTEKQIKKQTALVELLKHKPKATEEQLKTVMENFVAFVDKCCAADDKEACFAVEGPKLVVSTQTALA

| SMILES | IC50 ([1]; 48 h of exposure) [µM] | IC50 ([2]; 48 h of exposure) [µM] | IC50 (HCT116-DoxR spheroids) [µM] | Concentration in cells (HCT116-DoxR cells [3]) [µM] | Internalized percentage (HCT116-DoxR cells [3]) | increase of percentage of apoptotic cells normalized to DMSO (HCT116-DoxR cells [4]) [fold] | early apoptosis (HCT116-DoxR cells [4]) [%] | late apoptosis (HCT116-DoxR cells [4]) [%] | necrosis (HCT116-DoxR cells [4]) [%] | percentage of apoptosis (total) (HCT116-DoxR cells [4]) | viable cells (HCT116-DoxR cells [4]) [%] | BAX/BCL-2 ratio normalized to DMSO control (BAX) | BAX protein expression vs DMSO control (BAX) | BCL-2 protein expression vs DMSO control (BCL-2) | increase in expression of cleaved PARP1 vs 0.1% DMSO (cleaved PARP1) [fold] | caspase-8 activity vs 0.1% DMSO (caspase-8) | ROS production, increase over the DMSO control (HCT116-DoxR cells [5]) [fold] | BSA fluorescence with increasing complex concentrations [6] | cell cycle arrest / cytostatic effect (HCT116-DoxR cells [11]) | increase of autophagic vesicles over the control (HCT116-DoxR cells [12]) [fold] | other results |
| --- | --- | --- | --- | --- | --- | --- | --- | --- | --- | --- | --- | --- | --- | --- | --- | --- | --- | --- | --- | --- | --- |
| COc1ccnc2c1ccc1c(OC)ccnc12.O=C1[O][V](=[O])[O]C(=O)c2cccc1n2 [complex 5, [VO(dipic)(4,7-(CH3O)2-phen)]] | 1.8 ± 0.04 | 1.3 ± 0.01 | 3.5 ± 0.2 | 1.590 | 98.55% and ~100% | 2.5 | 59.4 ± 3.6 | 11.5 ± 5.0 | 0.8 ± 0.6 | about 70% | 28.3 ± 3.5 | ~1 | increased expression | increased expression | 5 | higher level of caspase-8 | 2.5 | high decrease in BSA fluorescence | no cell cycle arrest | ~2.3 | interaction with BSA protein [6]: capable of interacting; cell migration (wound remission) (fibroblasts): do not promote cell migration; anti-/pro-angiogenic potential, newly formed blood vessels, 48 h [7]: no anti-/pro-angiogenic potential; stability in RPMI culture medium [8]: no structural changes; IC50 [9, 16]: 0.2 ± 0.1 µM; IC50 [9, 17]: 0.2 ± 0.1 µM; IC50 [10]: 3.1 ± 0.07 µM; log P [13]: 0.55 |
| O=C1[O][V](=[O])[O]C(=O)c2cccc1n2.c1ccc(-c2ccnc3c2ccc2c(-c4ccccc4)ccnc23)cc1 [complex 6, [VO(dipic)(4,7-Ph2-phen)]] | 0.9 ± 0.03 | 0.2 ± 0.09 | 3.1 ± 0.42 | 1.672 | 98.32% and ~100% | 2.5 | 57.7 ± 5.8 | 13.4 ± 5.9 | 1.2 ± 0.9 | about 70% | 27.7 ± 7.9 | ~3 | increase | decrease | 8 | not detected | 2.6 | high decrease in BSA fluorescence | no cell cycle arrest | ~2.3 | JC-1 red/green fluorescence intensity ratio normalized to DMSO (HCT116-DoxR cells [14]): ~0.69; interaction with BSA protein [6]: capable of interacting; cell migration (wound remission) (fibroblasts): do not promote cell migration; anti-angiogenic potential, newly formed blood vessels, 24 h ([7]; IC50, 24 h): some anti-angiogenic potential; anti-/pro-angiogenic potential, newly formed blood vessels, 48 h [7]: no longer present; also recorded: no anti-/pro-angiogenic potential; solubility in RPMI culture medium over time [8]: loss of solubility over time; stability in RPMI culture medium [8]: no spectral changes over time; IC50 [9, 16]: 0.2 ± 0.05 µM; IC50 [9, 17]: 0.2 ± 0.05 µM; IC50 [10]: 4 ± 0.05 µM; log P [13]: 0.57 |
| COc1cccc2c1C(=O)c1c(O)c3c(c(O)c1C2=O)C[C@@](O)(C(=O)CO)C[C@@H]3O[C@H]1C[C@H](N)[C@H](O)[C@H](C)O1 [doxorubicin, reference compound] |  |  |  |  |  |  | 19.0 ± 4.4 |  | 11.2 ± 2.0 | 34% | 54.9 ± 4.3 |  |  |  |  |  |  |  | did not occur | ~2.3 | IC50 ([1]; Homo sapiens, HCT-116, 48 h of exposure): 0.5 ± 0.1 µM; IC50 ([2]; Homo sapiens, A2780, 48 h of exposure): 0.1 ± 0.04 µM; necrosis (HCT116-DoxR cells [4]; listed as Dox): 11%; viable cells (HCT116-DoxR cells [4]; listed as Dox): about 55%; IC50 [15]: > 6 µM |
